Test results published in patent US6605305B2, “Plant drug for treatment of liver disease” (priority 2001, dated 2003).
Marks after values point to notes of the source that are not given here.

What was measured:
ATP = ATP concentration with TET; type: biochemical; conditions: TET 5 μl/L + SCS (100 μmol/L)
Procedure: In present study, the effect of SCS on ATP and oxygen consumption was examined. The experiments of animal and livers were performed as previously described.

[1] = tested on: bovine aortic smooth muscle cell modified LDL; assay: Cell-modified LDL oxidation (MDA); type: cell-based; conditions: LDL + 100 μg SCS/ml, 24 hours, 37° C.
[2] = tested on: ethanol-induced gastric mucosal damage; assay: Ethanol-induced gastric mucosal damage; type: in vivo, rats
Procedure: (§1) The experiment of animal was performed as previously described. Mucosal damage in gastrointestinal tract was induced ethanol or indomethacin administration. In ethanol-treated animals, after 24 hours of fasting, ethanol was given orally (70%, v/v, 10 ml/kg) by means of an oral gastric. Mucosal damage was assessed by measurement of areas with hemorrhagic lesion. In the indomethacin ulcer model, rats were refed for 1 hour after 24 hours of fasting. Thirty minutes later, indomethacin (15 mg/kg) was administered subcutaneously and rats were killed 24 hours later. Mucosal lesions were again measured along the greatest diameter. […] SCS administration was repeated again 6 hours after indomethacin injection.

[3] = tested on: indomethacin induced small intestine mucosal damage; assay: Indomethacin induced small intestine mucosal damage; type: in vivo, rats
Procedure: as §1

RBL-5 = assay: NK cell activity of mice (^51Cr release), RBL-5 target cells; type: in vivo; conditions: oral dose of 100 mg/kg
YAC-1 = assay: NK cell activity of mice (^51Cr release), YAC-1 target cells; type: in vivo; conditions: oral dose of 100 mg/kg
complement = assay: Effect of SCS on complement; type: in vivo, mice
[4] = tested on: Aflatoxin B1 induced liver cancer; parameters: species or system rats; conditions: rat, in vivo
Hepatoma = assay: DNA synthesis of cancer cells ([^3H]TdR incorporation), hepatoma; type: in vivo, rats
Procedure: (§2) The method of animal and liver was described previously. Ascitric hepatoma, S180-ν, the transplantable 3924 used. After treatment with SCS (100 mg/kg), rats were injected with [^3H]-TdR (10 μc/μmole). Two hours after injection the animals were decapitated and examined. Livers and tumors were rapidly removed and blotted on filter paper. Tumors were carefully dissected free of necrotic, hemorrhagic, and nontumorous material. Tissues were minced with sharp scissors and 2 gm. DNA was prepared from the tissues. The radioactivity of the DNA was determined by liquid scintillation counting.
(§3) The incorporation of thymidine into DNA ws expressed as cpm/mg of DNA or cpm/gm of tissue.

S-180 = assay: DNA synthesis of cancer cells ([^3H]TdR incorporation), S-180; type: in vivo, rats
Procedure: as §2, §3

3924A = assay: DNA synthesis of cancer cells ([^3H]TdR incorporation), 3924A; type: in vivo, rats
Procedure: as §2, §3

mice = assay: Acute toxicity in mice; type: in vivo
Excerpt: a. Route of Administration: intravenous and intraperiotoneal injection
b. Route of administration: the oral route

rats = assay: Subacute toxicity, 30 days; type: in vivo
Cytochrome P-450 = conditions: rat, in vivo
[5] = intragastric route, 500 mg/kg daily, 30 consecutive days
[6] = rats, 500 mg/kg daily injected, 30 days

COc1cc2c(c(OC)c1OC)-c1c(cc(OC)c(OC)c1OC)C[C@](C)(O)[C@@H](C)C2 [SCS, Schisandrin]
ATP (ATP): 35.8 ± 4.0* 100 μmol/L
MDA (nmol/mg protein, x ± s) [1]: 2.80 ± 0.29 nmol/mg protein
Lesion area (mm^2) gastric antrum ([2]; SCS 10 mg/kg): 2.5 ± 0.35* mm^2
Lesion area (mm^2) gastric antrum ([2]; SCS 25 mg/kg): 2.0 ± 0.23** mm^2
Lesion area (mm^2) gastric antrum ([2]; SCS 50 mg/kg): 1.7 ± 0.20** mm^2
Lesion area (mm^2) Small intestine ([3]; SCS 10 mg/kg): 350 ± 38* mm^2
Lesion area (mm^2) Small intestine ([3]; SCS 25 mg/kg): 321 ± 33** mm^2
Lesion area (mm^2) Small intestine ([3]; SCS 50 mg/kg): 295 ± 30** mm^2
% Specific lysis (mean ± SEM) RBL-5 (RBL-5; effector/target 50:1): 12.1 ± 1.2 %
% Specific lysis (mean ± SEM) RBL-5 (RBL-5; effector/target 100:1): 19.8 ± 2.0 %
% Specific lysis (mean ± SEM) YAC-1 (YAC-1; effector/target 50:1): 45.0 ± 3.6 %
% Specific lysis (mean ± SEM) YAC-1 (YAC-1; effector/target 100:1): 64.0 ± 7.1%
C.P.M. (complement; treatment group): 480 ± 51
CPM of T/C (complement; treatment versus control): 194.3%
% of iron-excluding area in liver section [4]: 2.2 ± 0.2 %
Inhibition % [4]: 87.8%
Tissue inhibition rate (%) (Hepatoma; Hepatoma T versus C): 56.4%
[^3H]TdR into DNA × 10^−3 cm/mg (Hepatoma; Hepatoma T, SCS 100 mg/kg): 8.8 ± 0.80 × 10^−3 cm/mg
Tissue inhibition rate (%) (S-180; S-180 T versus C): 43.2%
[^3H]TdR into DNA × 10^−3 cm/mg (S-180; S-180 T, SCS 100 mg/kg): 39.8 ± 5.2 × 10^−3 cm/mg
Tissue inhibition rate (%) (3924A; 3924A t versus C): 52.6%
[^3H]TdR into DNA × 10^−3 cm/mg (3924A; 3924A t, SCS 100 mg/kg): 38.7 ± 4.8 × 10^−3 cm/mg
LD50 (mice; intragastric administration): 5200 mg/kg
LD50 (mice; intraperitoneal injection): 1250 mg/kg
LD50 intravenous versus dose used in clinical trials for human being (mice; intravenous): > 100 times
LD50 (mice; intravenous injection): 720 mg/kg
Behavior of the animal (rats; [5]): remained normal
Liver and kidney function, histological picture of important organs (rats; [5]): no abnormalities
Consumption of water, food and body weights versus control (rats; [6]): did not show any differences
Depressive, excitatory or sleepiness symptoms (rats; [6]): no depressive, excitatory or sleepiness symptoms
Microscopic inspection of stomach, liver, spleen and kidneys and their relative weights (rats; [6]): no alteration
Cytochrome P-450 (Cytochrome P-450): 2.80 ± 0.30 nmol/mg protein
